These are literature values, as cited in paper PMC10224173 (Viruses, 2023).

In the data set the target is ZIKV NS2B-NS3 protease (Zika virus, UniProt A0A024B7W1). To be noted: Table 2; active site inhibitor; ref [43].
Chain of ZIKV NS2B-NS3 protease (A0A024B7W1 1503-1680): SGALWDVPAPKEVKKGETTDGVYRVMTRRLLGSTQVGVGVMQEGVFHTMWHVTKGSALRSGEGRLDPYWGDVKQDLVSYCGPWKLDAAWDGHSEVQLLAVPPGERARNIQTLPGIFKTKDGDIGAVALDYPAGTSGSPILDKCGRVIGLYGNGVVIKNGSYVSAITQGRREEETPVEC
Chain of ZIKV NS2B-NS3 protease (A0A024B7W1 1419-1472): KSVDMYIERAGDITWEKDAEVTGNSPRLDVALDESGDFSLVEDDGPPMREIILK

`CC(C)C[C@H]1C(=O)N2CCC[C@H]2[C@]2(O)O[C@](NC(=O)[C@@H]3C=C4c5cccc6[nH]c(Br)c(c56)C[C@H]4N(C)C3)(C(C)C)C(=O)N12` [Bromocriptine]: the IC50 (in general, the concentration at which inhibition is half-maximal) was 21.6 µM.
